Reference: patent EP4140481A1, “PROTEIN-OLIGOMER BINDING AGENTS AND THERAPEUTIC USES THEREOF” (Galyan Bio, Inc., priority 2021, dated 2023)
pEC50: −log10 of the molar value. “Also recorded” adds a separate entry of the source. Read-outs that look alike come from different tables or passages of the source.

How the values were obtained:
C. elegans [1] = experiment: C. elegans healthspan, Worm Activity (aggregate movement); type: in vivo
Text: Background: To measure healthspan, active worms were identified using the ALM scanner images from the lifespan assay. The worms' spatial location on the plate was quantified throughout their lifespan to assess healthspan. Worm Activity serves as a proxy for animal health. Changes in spatial distribution of the worms between time points is used to derive aggregate movement for the population over time.
Worm Activity is described by two complementary measurements of aggregate movement: 1) Centroid Distance calculates a geometric center for each individual worm, and then measures the minimum collective distance that a group of worms moved between time points. It achieves measurement of the changes in spatial distribution betweentime-points. 2). Spatial Distribution uses changes in worm contours between time points to measure the changes in the spatial distribution of the worms' bodies. The normalized distribution of these distances in the population provides a measure of how much the group of worms altered their positions and posture on the plate between two time-points. For both of these activity metrics, a plot with higher numbers indicates good health, and all measures are normalized to fall between 0 and 1. All measurements are based on worms that are still alive and moving at the time of quantification. […]

C. elegans [2] = experiment: C. elegans differential gene expression (RNA-Seq); type: in vivo; conditions: vs. vehicle control
Protocol: […]. Both young (adult day 3) and aged (adult day 10) worms were collected from the same population of worms tested in lifespan assay.
Technical Background and Data Visualization Guide: Differential gene expression was performed with EdgeR using […] likelihood ratio tests based on fitting linear models. The likelihood ratios were used to determine the p-values which were subsequently corrected for using the BH false discovery rate (fdr) method. Eventually, differential expressed genes (DEG) were defined as genes with fdr-corrected p-value of 0.05 or lower, as well as a change in expression of at least 2-fold in a given between-group comparison. In this study, the following comparisons groups were used: Table 36: Comparison groups for differential gene expression
[…]. All DEG shown have P values under the cutoff of 0.05; […]. Gene function annotations collected from WormBase and human orthologs are predicted by DRSC Integrative Ortholog Prediction Tool (DIOPT, www.flyrna.org). […] […]. All DEG shown have P values under the cutoff of 0.05; […]. Gene function annotations collected from WormBase and human orthologs are predicted by DRSC Integrative Ortholog Prediction Tool (DIOPT, www.flyrna.org).

mHTT [3] = molecular target: T1, mHTT (Homo sapiens, UniProt P42858); conditions: reported effects in cultured cells, quoted for C. elegans dose selection; cited from earlier work
T1 construct: host or cells: ST HDH Q111/111 mouse striatal cell line (knock-in locus)
T1 sequence (P42858 with tags, fused parts or gaps with the stated changes): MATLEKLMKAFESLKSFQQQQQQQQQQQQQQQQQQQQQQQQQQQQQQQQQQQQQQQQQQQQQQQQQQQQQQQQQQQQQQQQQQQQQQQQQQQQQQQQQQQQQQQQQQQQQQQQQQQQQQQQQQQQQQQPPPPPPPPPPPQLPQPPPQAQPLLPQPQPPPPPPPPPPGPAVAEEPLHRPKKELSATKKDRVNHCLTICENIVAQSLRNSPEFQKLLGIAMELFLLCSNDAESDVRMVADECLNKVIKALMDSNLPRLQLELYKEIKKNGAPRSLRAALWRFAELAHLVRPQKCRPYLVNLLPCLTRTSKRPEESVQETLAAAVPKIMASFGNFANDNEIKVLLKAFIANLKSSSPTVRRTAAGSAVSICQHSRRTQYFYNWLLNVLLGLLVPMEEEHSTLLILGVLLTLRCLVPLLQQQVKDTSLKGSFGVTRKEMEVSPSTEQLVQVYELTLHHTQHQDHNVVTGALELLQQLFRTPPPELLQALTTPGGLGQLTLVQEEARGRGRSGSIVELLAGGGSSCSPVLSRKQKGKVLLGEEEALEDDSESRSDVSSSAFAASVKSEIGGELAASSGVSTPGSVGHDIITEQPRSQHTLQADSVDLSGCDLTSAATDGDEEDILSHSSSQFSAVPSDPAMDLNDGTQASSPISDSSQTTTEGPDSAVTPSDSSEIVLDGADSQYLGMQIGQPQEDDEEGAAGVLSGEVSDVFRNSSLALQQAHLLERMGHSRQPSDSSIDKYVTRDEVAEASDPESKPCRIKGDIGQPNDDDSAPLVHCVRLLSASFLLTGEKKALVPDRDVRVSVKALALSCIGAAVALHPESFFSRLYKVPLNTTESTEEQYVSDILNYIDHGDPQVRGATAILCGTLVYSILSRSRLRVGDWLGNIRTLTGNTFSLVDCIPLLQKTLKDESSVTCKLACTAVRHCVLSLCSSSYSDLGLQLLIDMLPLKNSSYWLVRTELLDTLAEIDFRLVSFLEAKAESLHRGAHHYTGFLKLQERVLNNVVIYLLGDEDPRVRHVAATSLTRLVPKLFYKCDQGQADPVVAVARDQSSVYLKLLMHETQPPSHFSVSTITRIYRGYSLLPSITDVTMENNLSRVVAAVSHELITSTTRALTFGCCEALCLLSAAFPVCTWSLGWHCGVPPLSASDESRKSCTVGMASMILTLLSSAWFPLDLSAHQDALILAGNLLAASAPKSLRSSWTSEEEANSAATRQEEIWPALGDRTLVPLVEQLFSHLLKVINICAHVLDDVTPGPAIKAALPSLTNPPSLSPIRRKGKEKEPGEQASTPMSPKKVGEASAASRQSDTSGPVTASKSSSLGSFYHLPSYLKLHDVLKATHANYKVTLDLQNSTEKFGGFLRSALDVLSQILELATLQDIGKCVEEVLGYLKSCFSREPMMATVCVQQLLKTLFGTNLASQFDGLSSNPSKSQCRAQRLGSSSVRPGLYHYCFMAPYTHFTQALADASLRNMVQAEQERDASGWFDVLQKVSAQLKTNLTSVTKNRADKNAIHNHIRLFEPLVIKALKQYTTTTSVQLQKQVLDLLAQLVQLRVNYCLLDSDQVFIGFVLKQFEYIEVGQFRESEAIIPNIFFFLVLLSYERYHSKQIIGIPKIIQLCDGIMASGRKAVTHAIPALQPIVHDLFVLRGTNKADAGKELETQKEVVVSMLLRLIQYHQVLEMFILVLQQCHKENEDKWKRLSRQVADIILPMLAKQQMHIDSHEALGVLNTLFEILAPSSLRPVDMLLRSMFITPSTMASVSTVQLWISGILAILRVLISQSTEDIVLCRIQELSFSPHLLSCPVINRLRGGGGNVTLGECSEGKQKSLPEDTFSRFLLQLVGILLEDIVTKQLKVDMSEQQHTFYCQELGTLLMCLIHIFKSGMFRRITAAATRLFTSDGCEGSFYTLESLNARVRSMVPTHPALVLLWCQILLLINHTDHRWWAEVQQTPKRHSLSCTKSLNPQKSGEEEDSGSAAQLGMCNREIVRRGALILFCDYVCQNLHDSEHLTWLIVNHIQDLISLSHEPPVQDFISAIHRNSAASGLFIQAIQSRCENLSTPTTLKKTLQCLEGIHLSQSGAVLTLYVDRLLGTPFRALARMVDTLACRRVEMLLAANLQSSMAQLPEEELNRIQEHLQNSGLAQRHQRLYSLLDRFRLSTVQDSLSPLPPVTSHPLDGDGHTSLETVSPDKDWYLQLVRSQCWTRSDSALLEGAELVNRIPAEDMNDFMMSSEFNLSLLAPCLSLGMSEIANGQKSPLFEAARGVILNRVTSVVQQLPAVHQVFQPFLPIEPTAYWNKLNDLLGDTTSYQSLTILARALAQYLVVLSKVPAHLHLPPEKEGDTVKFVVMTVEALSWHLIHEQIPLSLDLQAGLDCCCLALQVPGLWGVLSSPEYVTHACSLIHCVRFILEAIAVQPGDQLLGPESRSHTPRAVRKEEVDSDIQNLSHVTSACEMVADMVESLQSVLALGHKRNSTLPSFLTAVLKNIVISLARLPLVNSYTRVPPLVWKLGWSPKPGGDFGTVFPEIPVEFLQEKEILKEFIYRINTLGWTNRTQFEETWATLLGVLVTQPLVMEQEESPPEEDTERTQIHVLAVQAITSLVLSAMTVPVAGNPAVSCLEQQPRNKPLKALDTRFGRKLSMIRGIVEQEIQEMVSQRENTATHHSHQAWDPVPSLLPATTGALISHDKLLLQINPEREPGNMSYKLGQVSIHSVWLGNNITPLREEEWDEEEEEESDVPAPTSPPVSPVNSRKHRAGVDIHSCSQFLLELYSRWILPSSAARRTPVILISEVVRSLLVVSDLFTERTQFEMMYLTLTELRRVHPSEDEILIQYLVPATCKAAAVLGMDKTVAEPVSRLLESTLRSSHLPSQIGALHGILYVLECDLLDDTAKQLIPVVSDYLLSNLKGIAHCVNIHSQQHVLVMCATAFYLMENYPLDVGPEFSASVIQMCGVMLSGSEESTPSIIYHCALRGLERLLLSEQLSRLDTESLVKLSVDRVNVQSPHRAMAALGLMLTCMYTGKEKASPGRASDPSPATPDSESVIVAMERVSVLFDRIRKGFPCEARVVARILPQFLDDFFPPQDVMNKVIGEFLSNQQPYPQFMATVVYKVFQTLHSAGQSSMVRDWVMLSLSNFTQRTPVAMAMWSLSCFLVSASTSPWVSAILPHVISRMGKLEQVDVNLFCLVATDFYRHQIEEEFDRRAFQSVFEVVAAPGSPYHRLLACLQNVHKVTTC

mHTT [4] = molecular target: T1, mHTT; experiment: mHTT levels in striatal cells (immunocytochemistry); type: cell-based, mouse; conditions: STHdh 111/111; MW1 primary antibody; non-linear regression; read-out: EC 50 value for mHTT reduction
[5] = Pharmacokinetics of Compound 22 in plasma and brain (UHPLC-TOF); type: in vivo, male CD1 mice
Protocol: Compound 22 pharmacokinetic properties was measured in three male CD1 mice at several timepoints. Compound 22 was dissolved in 10% DMSO, 10%, cremaphor, and 80% saline. The tested dose was 33.3 mg/kg body weight. Brain tissue was homogenized and protein precipitated with acetonitrile. […] As such, Compound 22 was selected for testing in an animal model of HD the R6/2 model. As described below, Compound 22 and its analogs were further tested for their effects on striatal cell viability and effects of mHTT levels.

Oral bioavailability = conditions: mouse, in vivo, mice

CCc1c(C)[nH]c2ccc(C(=O)NCCN(CC)CC)cc12 [Compound 4, N-(2-(diethylamino)ethyl)-3-ethyl-2-methyl-1H-indole-5-carboxamide]
aggregate movement (Centroid Distance, Spatial Distribution) (C. elegans [1]; high dose (2 µM), after a slower start): even more elevated movement
aggregate movement (Centroid Distance, Spatial Distribution) (C. elegans [1]; low dose (200 nM), over the lifespan): consistently higher aggregate movement than control
cyp-35A1 Log2(fold change) (C. elegans [2]; Day 3, 200 nM): 3.04
cyp-35B1 Log2(fold change) (C. elegans [2]; Day 3, 200 nM): 3.41
cyp-35B2 Log2(fold change) (C. elegans [2]; Day 3, 200 nM): 9.18
cyp-35B3 Log2(fold change) (C. elegans [2]; Day 3, 200 nM): 12.96
irg-4 Log2(fold change) (C. elegans [2]; Day 3, 200 nM): 1.37
irg-5 Log2(fold change) (C. elegans [2]; Day 3, 200 nM): 2.09
pgp-13 Log2(fold change) (C. elegans [2]; Day 3, 200 nM): 3.55
C18H9.6 Log2(fold change) (C. elegans [2]; Day 3, 2 µM): 1.16
C29F3.7 Log2(fold change) (C. elegans [2]; Day 3, 2 µM): 1.25
D1086.3 Log2(fold change) (C. elegans [2]; Day 3, 2 µM): 1.19
F15B9.6 Log2(fold change) (C. elegans [2]; Day 3, 2 µM): 1.57
F55G11.2 Log2(fold change) (C. elegans [2]; Day 3, 2 µM): 2.80
T19B10.2 Log2(fold change) (C. elegans [2]; Day 3, 2 µM): 1.79
cpr-4 Log2(fold change) (C. elegans [2]; Day 3, 2 µM): 1.35
cyp-33A1 Log2(fold change) (C. elegans [2]; Day 3, 2 µM): 1.27
cyp-35A1 Log2(fold change) (C. elegans [2]; Day 3, 2 µM): 8.58
cyp-35B1 Log2(fold change) (C. elegans [2]; Day 3, 2 µM): 5.05
cyp-35B2 Log2(fold change) (C. elegans [2]; Day 3, 2 µM): 11.26
cyp-35B3 Log2(fold change) (C. elegans [2]; Day 3, 2 µM): 15.81
cyp-35C1 Log2(fold change) (C. elegans [2]; Day 3, 2 µM): 2.17
far-3 Log2(fold change) (C. elegans [2]; Day 3, 2 µM): 1.66
gst-5 Log2(fold change) (C. elegans [2]; Day 3, 2 µM): 2.71
irg-4 Log2(fold change) (C. elegans [2]; Day 3, 2 µM): 3.88
irg-5 Log2(fold change) (C. elegans [2]; Day 3, 2 µM): 5.88
pgp-13 Log2(fold change) (C. elegans [2]; Day 3, 2 µM): 5.44
ugt-44 Log2(fold change) (C. elegans [2]; Day 3, 2 µM): 1.45
cyp-35A1 Log2(fold change) (C. elegans [2]; Day 10, 200 nM): 4.25
cyp-35B1 Log2(fold change) (C. elegans [2]; Day 10, 200 nM): 1.62
cyp-35B2 Log2(fold change) (C. elegans [2]; Day 10, 200 nM): 5.71
cyp-35B3 Log2(fold change) (C. elegans [2]; Day 10, 200 nM): 11.65
irg-4 Log2(fold change) (C. elegans [2]; Day 10, 200 nM): 1.22
irg-5 Log2(fold change) (C. elegans [2]; Day 10, 200 nM): 2.12
pgp-13 Log2(fold change) (C. elegans [2]; Day 10, 200 nM): 4.36
F55G11.2 Log2(fold change) (C. elegans [2]; Day 10, 2 µM): 1.70
K08D8.6 Log2(fold change) (C. elegans [2]; Day 10, 2 µM): 1.45
cpr-4 Log2(fold change) (C. elegans [2]; Day 10, 2 µM): 1.80
cyp-35A1 Log2(fold change) (C. elegans [2]; Day 10, 2 µM): 6.81
cyp-35B1 Log2(fold change) (C. elegans [2]; Day 10, 2 µM): 2.06
cyp-35B2 Log2(fold change) (C. elegans [2]; Day 10, 2 µM): 6.61
cyp-35B3 Log2(fold change) (C. elegans [2]; Day 10, 2 µM): 13.40
cyp-35C1 Log2(fold change) (C. elegans [2]; Day 10, 2 µM): 1.60
gst-5 Log2(fold change) (C. elegans [2]; Day 10, 2 µM): 2.42
irg-4 Log2(fold change) (C. elegans [2]; Day 10, 2 µM): 2.95
irg-5 Log2(fold change) (C. elegans [2]; Day 10, 2 µM): 4.26
pgp-13 Log2(fold change) (C. elegans [2]; Day 10, 2 µM): 6.36
pEC50 (mHTT [3]): 6.80
pEC50 (mHTT [4]): 6.89

Cc1[nH]c2ccc(C(=O)NCCN(C(C)C)C(C)C)cc2c1C [Compound 22]
penetration of the blood brain area in vivo ([5]; 33.3 mg/kg body weight, plasma and brain): penetrates the blood brain area; also recorded: can penetrate the blood brain area in vivo
Blood Brain Barrier Penetrability AUCbrain/AUCplasma ([5]; Compound 22 in mice): AUCbrain/AUCplasma = 2.24
Cmax ([5]; male, CD1, mouse, brain, ip, 33.3 mg/kg body weight, i.p. administration and formulation, read-out: Brain exposure Cmax): 5.56 µM
bioavailability (Oral bioavailability): 10%
